Where two headings read alike, the source gives them in different places.
Tests used:
[1] = Study 1 Part 1: ascending single-dose pharmacokinetics in healthy volunteers; format: in vivo, human; details: healthy men; for Tmax: male, human, plasma, read-out: tmax, median
Description: Study 1 was a 2-part single-center trial in healthy adult male volunteers.
Part 1 of the study enrolled and randomized 55 healthy men (placebo, n=14; 2-, 5-, 15, 25-, 50, and 100-mg doses, n=6 each; 150-mg dose, n=5). Eight healthy men participated in Part 2. […]

[2] = system: GM3 expression in C32 human melanoma cells; test: GM3 fluorescent-linked immunosorbent assay (FLISA), C32 cells; format: cell-based; details: 48 hours
Description: Inhibition of glucosylceramide synthase activity can be measured with one or more assays. A first assay is a microsomal assay that directly measures the conversion of ceramide to glucosylceramide by HPLC. Microsomes are a source of glucosylceramide synthase activity in the microsomal assay. A second assay is a cell based, phenotypic assay that monitors cell surface expression of the downstream lipid GM3 by antibody mediated immunofluorescence. Specific protocols are provided below.
This is a phenotypic assay that measures GM3 expression in B16 mouse melanoma or C32 human melanoma cells following treatment with test compounds. Cell surface GM3 expression is determined by antibody mediated fluorescence.
Compounds are diluted in media and plated in 384 well plates in DMSO. B16 and C32 cells are assayed at densities of 20,000 cells/ml and 62,500 cells/ml, respectively, per well. Each titration curve contains 10 points that are assayed in duplicate on each test run. The plates are incubated for 48 hours at 37° C., 5% CO2, and are then washed once with TBS. Anti-GM3 antibody is added to each well and the plates are then incubated for an additional one hour at room temperature. Plates are subsequently washed twice and incubated for an additional hour with the labeled secondary antibody. Following the final incubation, the plates are washed twice and the fluorescence at λex=D640/20 nm and λem=657 nm is detected on a fluorescent reader.
The results of the microsomal assays are expressed as “GCS IC50”, which represents the concentration of the compound causing 50% inhibition of glucosylceramide synthase activity. The results of the cell-based assays are expressed as “GM3 B16 IC50” or “GM3 C32 IC50” for the B16 assay and the C32 assay, respectively. These values represent the concentration of the compound causing 50% inhibition of GM3 expression on the cell surface.

[3] = system: GL-3 inclusions in skin cells; test: Clinical study in Fabry disease patients: skin GL-3 inclusion score by light microscopy; format: in vivo, human
Protocol: A three-year open-label investigation of Compound 2 in young classic Fabry disease patients was conducted in order to evaluate the long-term safety, pharmacodynamics and exploratory efficacy of Compound 2 in adult male Fabry patients. Eleven subjects enrolled in the study, and seven subjects completed all aspects of the study. All subjects were males diagnosed with classic Fabry disease confirmed by genotype and residual alpha-galactosidase activity below detection levels (9 of the 11 had nonsense mutation in the GLA gene). All subjects had lyso-GL3 levels in plasma of at least 65 ng/mL and had no prior Fabry disease-specific treatment. The median age of subject was 24 years (range 19-37).
Each sample was scored independently by 3 pathologists for the presence of GL-3 inclusions on a four-point scale, and rated as 0 (no/trace), 1 (mild), 2 (moderate), or 3 (severe) according to Eng et al., N. Engl. J. Med. 345:9-16 (2001). A single score per patient per time point was derived by taking the score rated by the majority of the three pathologists. If a majority score could not be derived, then the median score was used (resulting in some fractional scores). Plasma samples were also analyzed for GL-3, lyso-GL-3, GL-1 and GM3 at baseline and weeks 12, 26, 52 and 156. Pain scores and abdominal symptoms were analyzed at baseline and weeks 12, 26, 52, 104 and 156 using the SF-36 scoring protocol.

[4] = single oral dose 2 mg, fasted (N = 6)
[5] = single oral dose 5 mg, fasted (N = 6)
[6] = single oral dose 15 mg, fasted (N = 6)
[7] = single oral dose 25 mg, fasted (N = 6)
[8] = single oral dose 50 mg, fasted (N = 6)
[9] = single oral dose 100 mg, fasted (N = 6)
[10] = single oral dose 150 mg, fasted (N = 5)
[11] = Fabry patients, 15 mg/day oral, by week 156
[12] = Fabry, 15 mg/day, Endothelial Cells, Deep Vessels, 12 weeks
[13] = Fabry, 15 mg/day, Endothelial Cells, Deep Vessels, 26 weeks
[14] = Fabry, 15 mg/day, Endothelial Cells, Deep Vessels, 52 weeks
[15] = Fabry, 15 mg/day, Endothelial Cells, Deep Vessels, 156 weeks
[16] = Fabry, 15 mg/day, Endothelial Cells, Superficial Vessels, 12 weeks
[17] = Fabry, 15 mg/day, Endothelial Cells, Superficial Vessels, 26 weeks
[18] = Fabry, 15 mg/day, Endothelial Cells, Superficial Vessels, 52 weeks
[19] = Fabry, 15 mg/day, Endothelial Cells, Superficial Vessels, 156 weeks
[20] = Fabry, 15 mg/day, Perineurium Cells, 12 weeks
[21] = Fabry, 15 mg/day, Perineurium Cells, 26 weeks
[22] = Fabry, 15 mg/day, Perineurium Cells, 52 weeks
[23] = Fabry, 15 mg/day, Perineurium Cells, 156 weeks
[24] = Fabry, 15 mg/day, Smooth Muscle Cells, Deep Vessels, 12 weeks
[25] = Fabry, 15 mg/day, Smooth Muscle Cells, Deep Vessels, 26 weeks
[26] = Fabry, 15 mg/day, Smooth Muscle Cells, Deep Vessels, 52 weeks
[27] = Fabry, 15 mg/day, Smooth Muscle Cells, Deep Vessels, 156 weeks

Compound: CC(C)(NC(=O)O[C@@H]1CN2CCC1CC2)c1csc(-c2ccc(F)cc2)n1 [Compound 2, (S)-quinuclidin-3-yl 2-(2-(4-fluorophenyl)thiazol-4-yl)propan-2-ylcarbamate]
- CL/F, Geometric mean [1, 4]: 6.3 L/h
- CL/F, Mean [1, 4]: 6.43 L/h
- CL/F, Geometric mean [1, 5]: 5.8 L/h
- CL/F, Mean [1, 5]: 5.86 L/h
- CL/F, Geometric mean [1, 6]: 5.6 L/h
- CL/F, Mean [1, 6]: 5.85 L/h
- Cmax, Geometric mean [1, 6]: 50.7 ng/mL
- CL/F, Geometric mean [1, 7]: 5.0 L/h
- CL/F, Mean [1, 7]: 5.18 L/h
- CL/F, Geometric mean [1, 8]: 5.5 L/h
- CL/F, Mean [1, 8]: 5.75 L/h
- CL/F, Geometric mean [1, 9]: 5.3 L/h
- CL/F, Mean [1, 9]: 5.38 L/h
- CL/F, Geometric mean [1, 10]: 5.6 L/h
- CL/F, Mean [1, 10]: 5.80 L/h
- Tmax [1, 7]: 5 h
- Tmax [1, 9]: 3 h
- IC50 [2]: 9.6 nM
- Patients with a 1-point reduction in skin GL-3 score [3, 11]: five
- Patients with complete clearance of GL-3 inclusions [3, 11]: two
- Patients with no change in skin GL-3 score [3, 11]: one
- Number of patients: skin GL-3 Score 1 unchanged [3, 12]: 1/9 (11%)
- Number of patients: skin GL-3 Score 2 dropped to 1 [3, 12]: 2/9 (22%)
- Number of patients: skin GL-3 Score 2 unchanged [3, 12]: 6/9 (67%)
- Number of patients: skin GL-3 Score 1 unchanged [3, 13]: 1/9 (11%)
- Number of patients: skin GL-3 Score 2 dropped to 1 [3, 13]: 2/9 (22%)
- Number of patients: skin GL-3 Score 2 unchanged [3, 13]: 6/9 (67%)
- Number of patients: skin GL-3 Score 2 dropped to 1 [3, 14]: 3/6 (50%)
- Number of patients: skin GL-3 Score 2 dropped to 1.5 [3, 14]: 1/6 (17%)
- Number of patients: skin GL-3 Score 2 unchanged [3, 14]: 2/6 (33%)
- Number of patients: skin GL-3 Score 1 unchanged [3, 15]: 1/6 (17%)
- Number of patients: skin GL-3 Score 2 dropped to 0.5 [3, 15]: 1/6 (17%)
- Number of patients: skin GL-3 Score 2 dropped to 1 [3, 15]: 3/6 (50%)
- Number of patients: skin GL-3 Score 2 unchanged [3, 15]: 1/6 (17%)
- Number of patients: skin GL-3 Score 1 raised to 2 [3, 16]: 1/9 (11%)
- Number of patients: skin GL-3 Score 1 unchanged [3, 16]: 4/9 (44%)
- Number of patients: skin GL-3 Score 2 dropped to 1 [3, 16]: 3/9 (33%)
- Number of patients: skin GL-3 Score 2 unchanged [3, 16]: 1/9 (11%)
- Number of patients: skin GL-3 Score 1 raised to 2 [3, 17]: 1/9 (11%)
- Number of patients: skin GL-3 Score 1 unchanged [3, 17]: 4/9 (44%)
- Number of patients: skin GL-3 Score 2 dropped to 1 [3, 17]: 3/9 (33%)
- Number of patients: skin GL-3 Score 2 unchanged [3, 17]: 1/9 (11%)
- Number of patients: skin GL-3 Score 1 unchanged [3, 18]: 3/6 (50%)
- Number of patients: skin GL-3 Score 2 dropped to 1 [3, 18]: 2/6 (33%)
- Number of patients: skin GL-3 Score 2 unchanged [3, 18]: 1/6 (17%)
- Number of patients: skin GL-3 Score 1 dropped to 0 [3, 19]: 2/6 (33%)
- Number of patients: skin GL-3 Score 1 unchanged [3, 19]: 1/6 (17%)
- Number of patients: skin GL-3 Score 2 dropped to 1 [3, 19]: 3/6 (50%)
- Number of patients: skin GL-3 Score 1 raised to 2 [3, 20]: 1/9 (11%)
- Number of patients: skin GL-3 Score 2 unchanged [3, 20]: 8/9 (89%)
- Number of patients: skin GL-3 Score 1 raised to 2 [3, 21]: 1/9 (11%)
- Number of patients: skin GL-3 Score 2 unchanged [3, 21]: 8/9 (89%)
- Number of patients: skin GL-3 Score 1 raised to 2 [3, 22]: 1/6 (17%)
- Number of patients: skin GL-3 Score 2 dropped to 1 [3, 22]: 1/6 (17%)
- Number of patients: skin GL-3 Score 2 dropped to 1.5 [3, 22]: 1/6 (17%)
- Number of patients: skin GL-3 Score 2 unchanged [3, 22]: 3/6 (50%)
- Number of patients: skin GL-3 Score 1 unchanged [3, 23]: 1/6 (17%)
- Number of patients: skin GL-3 Score 2 dropped to 1.5 [3, 23]: 1/6 (17%)
- Number of patients: skin GL-3 Score 2 unchanged [3, 23]: 4/6 (67%)
- Number of patients: skin GL-3 Score 1.5 raised to 2 [3, 24]: 2/9 (22%)
- Number of patients: skin GL-3 Score 2 unchanged [3, 24]: 7/9 (78%)
- Number of patients: skin GL-3 Score 1.5 unchanged [3, 25]: 2/9 (22%)
- Number of patients: skin GL-3 Score 2 unchanged [3, 25]: 7/9 (78%)
- Number of patients: skin GL-3 Score 1.5 raised to 2 [3, 26]: 1/5 (20%)
- Number of patients: skin GL-3 Score 2 unchanged [3, 26]: 4/5 (80%)
- Number of patients: skin GL-3 Score 1.5 raised to 2 [3, 27]: 1/6 (17%)
- Number of patients: skin GL-3 Score 2 dropped to 1 [3, 27]: 1/6 (17%)
- Number of patients: skin GL-3 Score 2 dropped to 1.5 [3, 27]: 1/6 (17%)
- Number of patients: skin GL-3 Score 2 unchanged [3, 27]: 3/6 (50%)

— patent publication US20220016092A1, “METHODS FOR TREATING SYMPTOMS AND DISORDERS ASSOCIATED WITH LYSOSOMAL STORAGE DISEASES” (GENZYME CORPORATION, priority 2019, published 2022)
